# Experimental data from PMC8501045, “Addressing MRSA infection and antibacterial resistance with peptoid polymers” (Nature Communications, 2021).
# Values joined by “and” are separate entries in the source; they are usually repeats but may differ in a detail not shown here. Equal entries are not always repeated.
# Experiments:
# [1] = test system: E. faecalis 0609; assay: MIC assay, clinical isolate; assay type: cell-based; conditions: Enterococcus faecalis, 0609
# Procedure: (§1) MRSA (S. aureus Mu50, S. aureus Newman, S. aureus USA400, S. aureus USA300 LAC, S. aureus USA300) were obtained from Shanghai Institute of Materia Medica, Chinese Academy of Sciences. All clinically isolated Gram-positive bacteria used in this study were isolated from patients with various infections, different ages and sexes in the Shanghai Ruijin Rehabilitation Hospital. All strains were cultured in Luria-Bertani (LB) medium at 37 °C before use.
# (§2) Bacteria were cultured in LB medium at 37 °C for 10 h, and then the bacterial suspension was diluted in Mueller–Hinton (MH) medium to a cell density of 2 × 10^5 colony forming units (CFU)/mL as the working suspension. The poly(Naeg)20 was serially diluted by MH medium in a 96-well plate, and an equal volume of bacterial suspension was added into each well. The final concentration of the poly(Naeg)20 was ranging from 200 to 1.56 μg/mL, and the plates were incubated at 37 °C for 9 h. Wells with inoculum and no polymer were used as the positive control; wells with only MH medium were used as the blank. The optical density (OD) in each well was measured on a Molecular Devices SpectraMax M2 precision microplate reader. The percentage of bacteria growth was calculated from1 %cellgrowth=A600polymer-A600blank/A600control-A600blank×100
# (§3) The test was independently repeated at least three times.
# [2] = test system: E. faecalis 2305; assay: MIC assay, clinical isolate; assay type: cell-based; conditions: Enterococcus faecalis, 2305
# Procedure: as §1, §2, §3
# [3] = test system: E. faecium 0502; assay: MIC assay, clinical isolate; assay type: cell-based; conditions: Enterococcus faecium, 0502
# Procedure: as §1, §2, §3
# [4] = test system: E. faecium 0609; assay: MIC assay, clinical isolate; assay type: cell-based; conditions: Enterococcus faecium, 0609
# Procedure: as §1, §2, §3
# [5] = test system: E. faecium 0610; assay: MIC assay, clinical isolate; assay type: cell-based; conditions: Enterococcus faecium, 0610
# Procedure: as §1, §2, §3
# [6] = test system: E. faecium 1205; assay: MIC assay, clinical isolate; assay type: cell-based; conditions: Enterococcus faecium, 1205
# Procedure: as §1, §2, §3
# [7] = test system: E. faecium 2504; assay: MIC assay, clinical isolate; assay type: cell-based; conditions: Enterococcus faecium, 2504
# Procedure: as §1, §2, §3
# [8] = test system: S. agalactiae 0613; assay: MIC assay, clinical isolate; assay type: cell-based; conditions: Streptococcus agalactiae, 0613
# Procedure: as §1, §2, §3
# [9] = test system: S. aureus 2202; assay: MIC assay, clinical isolate; assay type: cell-based; conditions: Staphylococcus aureus, 2202
# Procedure: as §1, §2, §3
# [10] = test system: S. aureus 2802; assay: MIC assay, clinical isolate; assay type: cell-based; conditions: Staphylococcus aureus, 2802
# Procedure: as §1, §2, §3
# [11] = test system: S. aureus 2902; assay: MIC assay, clinical isolate; assay type: cell-based; conditions: Staphylococcus aureus, 2902
# Procedure: as §1, §2, §3
# [12] = test system: S. aureus 2904; assay: MIC assay, clinical isolate; assay type: cell-based; conditions: Staphylococcus aureus, 2904
# Procedure: as §1, §2, §3
# [13] = test system: S. epidermidis 0501; assay: MIC assay, clinical isolate; assay type: cell-based; conditions: Staphylococcus epidermidis, 0501
# Procedure: as §1, §2, §3
# [14] = test system: S. epidermidis 9397; assay: MIC assay, clinical isolate; assay type: cell-based; conditions: Staphylococcus epidermidis, 9397
# Procedure: as §1, §2, §3
# [15] = test system: S. haemolyticus 0202; assay: MIC assay, clinical isolate; assay type: cell-based; conditions: Staphylococcus haemolyticus, 0202
# Procedure: as §1, §2, §3
# [16] = test system: S. haemolyticus 1107; assay: MIC assay, clinical isolate; assay type: cell-based; conditions: Staphylococcus haemolyticus, 1107
# Procedure: as §1, §2, §3
# [17] = test system: S. haemolyticus 1303; assay: MIC assay, clinical isolate; assay type: cell-based; conditions: Staphylococcus haemolyticus, 1303
# Procedure: as §1, §2, §3
# [18] = test system: S. aureus USA300 mature biofilm; assay: Activity against mature biofilm; assay type: cell-based, Staphylococcus aureus; conditions: for Biofilm survival(%): vancomycin, r4-r9 = 32, 64, 128, 256, 512, 1024 MIC
# Procedure: The plate was incubated at 37 °C for 24 h to allow biofilm formation. […] Then MTT assay was used to determine the biofilm viability. Wells containing inoculum and without antibacterial agents were used as the positive control; wells containing only MH medium were used as the blank. The percentage of surviving cells within biofilm was calculated from5 %cellviability=A570polymer-A570blank/A570control-A570blank×100
# as §3
# [19] = test system: S. haemolyticus 0202; assay: Mouse peritonitis model, survival test, S. haemolyticus; assay type: in vivo; conditions: i.p. 20 mg/kg, 7 days
# Procedure: This infection model was conducted according to the previously reported method with slight modification. Female ICR mice (21–24 g) were used for MRSA-infected peritonitis model. Mice were infected by intraperitoneal administration of 0.2 mL of S. aureus USA300 LAC in saline (7.5 × 10^8 CFU/mL) supplemented with 5% mucin. […] Once the infected mice died, peritoneal lavage was performed by injecting 3.0 mL of saline into the peritoneal cavity and massaging the abdomen. Subsequently, the abdomen was opened and peritoneal fluid was recovered from the abdominal cavity for analysis. Blood samples were collected through cardiac puncture for analysis of CFU/mL. Then, different organs including the heart, liver, spleen, lung, and kidney were removed and homogenized in 0.1% TX-100 solution. The homogenate was serially diluted for plating on LB agar. After incubation at 37 °C for 14 h, the number of colonies on the plate was counted to calculate the bacteria burden. Surviving mice were euthanized at 48 h after infection. The blood, peritoneal fluid, and organs were collected for the determination of bacterial colonies. […] For the pretreatment group, mice were sacrificed and tissues were harvested to determine the CFU at 1 h post infection. […]
compound,measurement,setting,value
CN[C@H](CC(C)C)C(=O)N[C@H]1C(=O)N[C@@H](CC(N)=O)C(=O)N[C@H]2C(=O)N[C@H]3C(=O)N[C@H](C(=O)N[C@H](C(=O)O)c4cc(O)cc(O)c4-c4cc3ccc4O)[C@H](O)c3ccc(c(Cl)c3)Oc3cc2cc(c3O[C@@H]2O[C@H](CO)[C@@H](O)[C@H](O)[C@H]2O[C@H]2C[C@](C)(N)[C@H](O)[C@H](C)O2)Oc2ccc(cc2Cl)[C@H]1O [Vancomycin],MIC,[1],0.39 µg/mL
same,MIC,[2],0.78 µg/mL
same,MIC,[3],> 200 µg/mL
same,MIC,[4],50 µg/mL
same,MIC,[5],0.78 µg/mL
same,MIC,[6],0.39 µg/mL
same,MIC,[7],0.78 µg/mL
same,MIC,[8],0.78 µg/mL
same,MIC,[9],0.78 µg/mL
same,MIC,[10],0.39 µg/mL
same,MIC,[11],0.39 µg/mL
same,MIC,[12],0.39 µg/mL
same,MIC,[13],0.78 µg/mL
same,MIC,[14],0.78 µg/mL
same,MIC,[15],1.56 µg/mL
same,MIC,[16],0.78 µg/mL
same,MIC,[17],0.78 µg/mL
same,concentration that eradicates mature biofilms of S. aureus,[18],> 1024 × MIC
same,Biofilm survival(%),[18]; replicate 1,57.1927% and 41.3774% and 45.7038% and 29.4643% and 29.3131% and 28.1882%
same,Biofilm survival(%),[18]; replicate 2,57.8677% and 50.7936% and 39.7472% and 30.2942% and 28.1255% and 26.0416%
same,survival of the mice,[19],100%
